According to ChEMBL document CHEMBL3352071, “Benzimidazoles: novel mycobacterial gyrase inhibitors from scaffold morphing” (ACS Med Chem Lett, 2014):
Converted amounts (≈) assume the structure as drawn.

How the values were obtained:
[1] = test system: Mycobacterium tuberculosis; experiment: Antimicrobial activity against Mycobacterium tuberculosis H37Rv ATCC 27294; assay type: functional
[2] = Octanol-water partition coefficient, logD of the compound at pH 7.4 by shake-flask method; assay type: physicochemical
[3] = target: Voltage-gated inwardly rectifying potassium channel KCNH2 (Homo sapiens, UniProt Q12809)
Sequence of Voltage-gated inwardly rectifying potassium channel KCNH2 (Q12809 whole entry): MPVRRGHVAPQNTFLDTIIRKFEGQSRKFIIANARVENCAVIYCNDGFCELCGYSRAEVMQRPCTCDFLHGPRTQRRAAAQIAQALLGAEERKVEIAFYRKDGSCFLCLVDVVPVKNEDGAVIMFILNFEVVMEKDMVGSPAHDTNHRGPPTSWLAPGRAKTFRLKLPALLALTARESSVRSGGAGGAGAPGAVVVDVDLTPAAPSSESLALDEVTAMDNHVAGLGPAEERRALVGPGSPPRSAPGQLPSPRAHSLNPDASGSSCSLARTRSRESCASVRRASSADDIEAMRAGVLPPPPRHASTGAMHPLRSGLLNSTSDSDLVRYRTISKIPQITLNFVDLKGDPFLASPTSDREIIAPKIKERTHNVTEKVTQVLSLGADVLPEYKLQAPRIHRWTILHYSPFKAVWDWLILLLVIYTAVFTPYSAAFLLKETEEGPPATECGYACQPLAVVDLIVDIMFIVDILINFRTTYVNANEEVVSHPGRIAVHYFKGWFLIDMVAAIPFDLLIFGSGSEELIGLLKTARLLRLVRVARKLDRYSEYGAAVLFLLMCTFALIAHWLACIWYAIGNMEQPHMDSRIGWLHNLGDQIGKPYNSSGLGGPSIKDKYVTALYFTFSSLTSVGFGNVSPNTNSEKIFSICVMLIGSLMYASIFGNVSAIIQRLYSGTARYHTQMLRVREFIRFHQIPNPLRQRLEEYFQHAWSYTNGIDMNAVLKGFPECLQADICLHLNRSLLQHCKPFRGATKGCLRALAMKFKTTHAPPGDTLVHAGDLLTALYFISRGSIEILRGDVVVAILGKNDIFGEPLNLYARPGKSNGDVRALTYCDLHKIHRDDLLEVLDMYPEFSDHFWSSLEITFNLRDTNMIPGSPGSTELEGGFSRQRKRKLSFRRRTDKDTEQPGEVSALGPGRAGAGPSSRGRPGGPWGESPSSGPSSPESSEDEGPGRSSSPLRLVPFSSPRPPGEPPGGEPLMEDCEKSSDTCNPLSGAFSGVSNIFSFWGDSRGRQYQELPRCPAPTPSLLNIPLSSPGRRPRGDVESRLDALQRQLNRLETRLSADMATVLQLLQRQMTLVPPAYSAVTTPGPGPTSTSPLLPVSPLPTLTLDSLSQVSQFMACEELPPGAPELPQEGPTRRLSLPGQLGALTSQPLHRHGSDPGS
Description: Inhibition of human ERG by electrophysiology assay

[4] = Inhibition of Mycobacterium tuberculosis H37Rv DNA gyrase A2B2 holoenzyme supercoiling activity using relaxed pBR322 substrate incubated for 90 mins by ethidium bromide staining based gel electrophoresis method
DNA gyrase subunit B = DNA gyrase subunit B (Mycobacterium smegmatis, UniProt P0C559); experiment: Inhibition of Mycobacterium smegmatis GyrB ATPase activity; set-up: species or system Mycolicibacterium smegmatis
Sequence of DNA gyrase subunit B (P0C559 whole entry): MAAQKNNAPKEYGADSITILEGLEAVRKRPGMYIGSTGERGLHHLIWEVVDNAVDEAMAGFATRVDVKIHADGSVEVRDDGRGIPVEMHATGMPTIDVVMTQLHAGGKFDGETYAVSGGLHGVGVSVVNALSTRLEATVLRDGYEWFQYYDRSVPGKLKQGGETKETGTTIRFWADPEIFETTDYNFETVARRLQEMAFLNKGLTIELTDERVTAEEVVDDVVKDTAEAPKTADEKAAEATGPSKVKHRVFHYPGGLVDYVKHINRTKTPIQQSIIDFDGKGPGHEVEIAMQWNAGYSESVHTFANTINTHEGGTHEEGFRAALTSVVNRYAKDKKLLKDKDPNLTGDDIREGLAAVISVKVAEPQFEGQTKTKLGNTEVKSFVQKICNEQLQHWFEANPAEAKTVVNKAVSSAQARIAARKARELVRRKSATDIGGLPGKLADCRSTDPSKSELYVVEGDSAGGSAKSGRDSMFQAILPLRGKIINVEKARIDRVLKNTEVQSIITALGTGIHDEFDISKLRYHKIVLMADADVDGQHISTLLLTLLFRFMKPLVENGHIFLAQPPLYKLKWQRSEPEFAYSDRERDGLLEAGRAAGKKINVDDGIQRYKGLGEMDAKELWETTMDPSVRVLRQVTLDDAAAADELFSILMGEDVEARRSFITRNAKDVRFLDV

THP-1 = experiment: Cytotoxicity against human THP1 cells; assay type: cell-based
[5] = Solubility of the compound; assay type: physicochemical
[6] = Permeability from apical to basolateral side in human Caco2 cells; assay type: ADME, cell-based; settings: Caco-2, read-out: permeability
[7] = Permeability from basolateral to apical side in human Caco2 cells; assay type: ADME, cell-based; settings: Caco-2, read-out: permeability
[8] = Clearance in Wistar rat at 1 mg/kg, iv; assay type: ADME, organism-based; set-up: dose 1 mg/kg, route intravenous; settings: in vivo
[9] = Volume of distribution at steady state in Wistar rat at 1 mg/kg, iv; assay type: ADME, organism-based; set-up: dose 1 mg/kg, route intravenous; settings: in vivo, read-out: Vdss
[10] = Elimination half life in Wistar rat at 1 mg/kg, iv; assay type: ADME, organism-based; set-up: dose 1 mg/kg, route intravenous; settings: in vivo, read-out: beta t1/2 (converted)
[11] = AUC (0 to infinity) in Wistar rat at 1 mg/kg, iv; assay type: ADME, organism-based; set-up: time infinity, dose 1 mg/kg, route intravenous; settings: plasma
[12] = AUC (0 to infinity) in Wistar rat at 10 mg/kg, po; assay type: ADME, organism-based; set-up: time infinity, dose 10 mg/kg, route oral; settings: plasma
[13] = Oral bioavailability in Wistar rat at 10 mg/kg; assay type: ADME, organism-based; settings: in vivo
Cytochrome P450 1A2 = target: T1, Cytochrome P450 1A2 (Homo sapiens, UniProt P05177); experiment: Inhibition of CYP1A2 (unknown origin); assay type: ADME
T1 sequence (P05177 whole entry): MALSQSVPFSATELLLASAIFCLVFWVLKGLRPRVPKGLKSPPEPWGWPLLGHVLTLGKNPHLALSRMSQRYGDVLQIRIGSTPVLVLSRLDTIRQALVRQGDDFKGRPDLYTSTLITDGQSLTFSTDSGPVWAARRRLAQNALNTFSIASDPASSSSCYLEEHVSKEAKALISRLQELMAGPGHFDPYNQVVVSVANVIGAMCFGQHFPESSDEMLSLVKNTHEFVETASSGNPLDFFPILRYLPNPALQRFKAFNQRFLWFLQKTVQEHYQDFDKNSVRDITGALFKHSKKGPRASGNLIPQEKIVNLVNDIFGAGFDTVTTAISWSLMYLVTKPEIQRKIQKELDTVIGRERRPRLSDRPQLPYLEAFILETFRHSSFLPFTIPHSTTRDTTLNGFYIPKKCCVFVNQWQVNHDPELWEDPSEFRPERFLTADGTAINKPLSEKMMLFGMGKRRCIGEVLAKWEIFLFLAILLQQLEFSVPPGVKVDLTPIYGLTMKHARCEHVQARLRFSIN

Cytochrome P450 2C9 = Cytochrome P450 2C9 (Homo sapiens, UniProt P11712); experiment: Inhibition of CYP2C9 (unknown origin); assay type: ADME
Sequence of Cytochrome P450 2C9 (P11712 whole entry): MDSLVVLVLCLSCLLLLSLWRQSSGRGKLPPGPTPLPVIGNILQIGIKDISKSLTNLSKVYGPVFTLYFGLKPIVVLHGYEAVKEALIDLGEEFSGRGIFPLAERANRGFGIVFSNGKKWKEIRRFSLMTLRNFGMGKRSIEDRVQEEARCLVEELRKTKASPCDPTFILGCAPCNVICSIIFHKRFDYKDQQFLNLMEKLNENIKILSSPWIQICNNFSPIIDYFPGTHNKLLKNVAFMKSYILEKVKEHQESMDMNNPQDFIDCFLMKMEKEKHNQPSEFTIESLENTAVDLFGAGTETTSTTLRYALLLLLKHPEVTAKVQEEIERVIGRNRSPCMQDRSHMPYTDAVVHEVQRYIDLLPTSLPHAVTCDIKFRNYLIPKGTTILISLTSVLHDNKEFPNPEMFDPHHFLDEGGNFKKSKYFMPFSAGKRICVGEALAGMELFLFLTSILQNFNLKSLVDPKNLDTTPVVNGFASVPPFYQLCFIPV

Cytochrome P450 2C19 = Cytochrome P450 2C19 (Homo sapiens, UniProt P33261); experiment: Inhibition of CYP2C19 (unknown origin); assay type: ADME
Sequence of Cytochrome P450 2C19 (P33261 whole entry): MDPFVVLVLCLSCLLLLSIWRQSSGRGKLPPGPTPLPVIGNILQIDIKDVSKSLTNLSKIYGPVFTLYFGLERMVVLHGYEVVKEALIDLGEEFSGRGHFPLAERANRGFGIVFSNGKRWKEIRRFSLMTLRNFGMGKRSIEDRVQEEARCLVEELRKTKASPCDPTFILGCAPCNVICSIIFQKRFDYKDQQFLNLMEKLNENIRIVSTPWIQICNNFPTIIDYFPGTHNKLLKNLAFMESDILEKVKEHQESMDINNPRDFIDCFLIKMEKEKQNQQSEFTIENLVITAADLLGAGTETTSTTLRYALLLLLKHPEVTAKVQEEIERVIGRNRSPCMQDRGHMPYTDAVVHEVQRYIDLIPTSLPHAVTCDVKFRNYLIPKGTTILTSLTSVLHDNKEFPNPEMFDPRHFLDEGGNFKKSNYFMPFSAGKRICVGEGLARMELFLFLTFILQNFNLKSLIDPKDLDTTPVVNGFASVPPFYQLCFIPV

Cytochrome P450 2D6 = Cytochrome P450 2D6 (Homo sapiens, UniProt P10635); experiment: Inhibition of CYP2D6 (unknown origin); assay type: ADME
Sequence of Cytochrome P450 2D6 (P10635 whole entry): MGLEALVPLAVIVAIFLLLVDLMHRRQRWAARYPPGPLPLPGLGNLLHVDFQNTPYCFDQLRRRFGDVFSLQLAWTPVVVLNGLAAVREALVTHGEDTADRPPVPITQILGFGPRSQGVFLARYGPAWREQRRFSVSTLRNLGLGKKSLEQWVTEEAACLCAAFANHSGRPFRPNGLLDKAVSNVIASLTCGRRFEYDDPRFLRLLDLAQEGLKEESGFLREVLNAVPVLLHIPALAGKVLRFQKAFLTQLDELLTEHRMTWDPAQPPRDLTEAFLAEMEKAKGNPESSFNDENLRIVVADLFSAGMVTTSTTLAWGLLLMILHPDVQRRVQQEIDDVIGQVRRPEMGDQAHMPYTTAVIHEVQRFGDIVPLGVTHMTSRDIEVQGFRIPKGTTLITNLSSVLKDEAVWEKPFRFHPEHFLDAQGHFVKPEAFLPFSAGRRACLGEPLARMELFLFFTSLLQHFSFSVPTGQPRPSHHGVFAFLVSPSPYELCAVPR

Cytochrome P450 3A4 = Cytochrome P450 3A4 (Homo sapiens, UniProt P08684); experiment: Inhibition of CYP3A4 (unknown origin); assay type: ADME
Sequence of Cytochrome P450 3A4 (P08684 whole entry): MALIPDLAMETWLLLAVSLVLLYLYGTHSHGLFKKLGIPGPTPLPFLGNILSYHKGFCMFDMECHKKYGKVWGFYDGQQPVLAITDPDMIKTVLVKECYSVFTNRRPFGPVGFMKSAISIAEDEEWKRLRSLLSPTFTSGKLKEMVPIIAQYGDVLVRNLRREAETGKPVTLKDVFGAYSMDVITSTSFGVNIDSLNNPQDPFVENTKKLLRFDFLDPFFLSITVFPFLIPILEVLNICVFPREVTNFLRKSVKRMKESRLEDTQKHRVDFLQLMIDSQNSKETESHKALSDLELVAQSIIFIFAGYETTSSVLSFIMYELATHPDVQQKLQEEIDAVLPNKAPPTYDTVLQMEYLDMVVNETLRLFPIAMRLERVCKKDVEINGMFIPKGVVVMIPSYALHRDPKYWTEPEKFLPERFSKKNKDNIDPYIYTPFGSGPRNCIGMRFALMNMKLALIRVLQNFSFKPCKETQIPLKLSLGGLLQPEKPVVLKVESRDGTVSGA

Structure (SMILES)	MIC [1]	logD [2]	IC50 [3]	further results
COc1cnc2ccc(=O)n(CCN3CCC(c4nc5cc(Cl)c(C)cc5[nH]4)CC3)c2c1	0.13 µM (≈ 0.0588 µg/mL)	3.8		
N#Cc1ccc2[nH]c(C3CCN(CCn4c(=O)ccc5ncc(Oc6ccc(S(N)(=O)=O)cc6)cc54)CC3)nc2c1	0.78 µM (≈ 0.444 µg/mL)	2.2	> 33 µM	
COc1cnc2ncc(=O)n(CCN3CCC(c4nc5cc(Cl)c(C)cc5[nH]4)CC3)c2c1	0.39 µM (≈ 0.177 µg/mL)	3.5	10 µM	
N#Cc1ccc2ccc(=O)n(CCN3CCC(NCc4ccc5c(n4)NC(=O)CO5)CC3)c2c1	0.19 µM (≈ 0.0871 µg/mL)			IC50 [4]: 0.11 µM
COc1cnc2ccc(=O)n(CCN3CCC(c4nc5cc(C(F)(F)F)ccc5[nH]4)CC3)c2c1	0.19 µM (≈ 0.0896 µg/mL)	4		IC50 (DNA gyrase subunit B): > 100 µM; IC50 (THP-1): > 50 µM
COc1cnc2ccc(=O)n(CCN3CCC(c4nc5cc(Cl)c(F)cc5[nH]4)CC3)c2c1	0.06 µM (≈ 0.0274 µg/mL)	4		IC50 [4]: 2 µM
NNC(=O)c1ccncc1 [ISONIAZID]	0.06 µM (≈ 0.00823 µg/mL)			
Cc1cc2[nH]c(C3CCN(CCn4c(=O)ccc5ncc(F)cc54)CC3)nc2cc1C#N	3.15 µM (≈ 1.36 µg/mL)			
N#Cc1ccc2[nH]c(C3CCN(CCn4c(=O)ccc5ncc(F)cc54)CC3)nc2c1	50 µM (≈ 20.8 µg/mL)			
COc1cnc2ccc(=O)n(CCN3CCN(c4nc5cc(C#N)c(C)cc5[nH]4)CC3)c2c1	0.78 µM (≈ 0.346 µg/mL)	3.2	> 33 µM	solubility [5]: 3 µM (≈ 1.33 µg/mL); Papp A→B [6]: 1.5 ×10⁻⁶ cm/s; Papp B→A [7]: 24.1 ×10⁻⁶ cm/s; clearance [8]: 32.2 mL/min/kg; Vd [9]: 1.54 L/kg; half-life [10]: 48 min; AUC(0-inf) [11]: 520 ng·h/mL; AUC(0-inf) [12]: 160 ng·h/mL; bioavailability [13]: 3.3%; IC50 (Cytochrome P450 1A2): > 30 µM; IC50 (Cytochrome P450 2C9): > 30 µM; IC50 (Cytochrome P450 2C19): > 30 µM; IC50 (Cytochrome P450 2D6): 20 µM; IC50 (Cytochrome P450 3A4): 20 µM
COc1cnc2ccc(=O)n(CCN3CCC(C4C(=O)Nc5ccc(Cl)cc54)CC3)c2c1 (stereo not drawn)	100 µM (≈ 45.3 µg/mL)	2.8	4.8 µM	IC50 [4]: > 50 µM; IC50 (DNA gyrase subunit B): > 100 µM; IC50 (THP-1): > 50 µM
COc1cnc2ccc(=O)n(CCN3CCN(c4nc5cc(C(F)(F)F)ccc5[nH]4)CC3)c2c1	3.13 µM (≈ 1.48 µg/mL)	2.8	10 µM	
Cc1cc2[nH]c(C3CCN(CCn4c(=O)ccc5ncc(F)cc54)CC3)nc2cc1Cl	1.56 µM (≈ 0.686 µg/mL)	3.7	1.2 µM	
COc1c(N2C[C@@H]3CCCN[C@@H]3C2)c(F)cc2c(=O)c(C(=O)O)cn(C3CC3)c12 [MOXIFLOXACIN]	0.13 µM (≈ 0.0522 µg/mL)			
O=c1ccc2ncc(F)cc2n1CCN1CCC(NCc2ccc(C(F)(F)F)nc2)CC1	0.19 µM (≈ 0.0854 µg/mL)			IC50 [4]: 0.25 µM
O=C(O)c1cn(C2CC2)c2cc(N3CCNCC3)c(F)cc2c1=O [CIPROFLOXACIN]	0.5 µM (≈ 0.166 µg/mL)			
COc1ccc2ncc(=O)n(CCN3CCC(c4nc5cc(Cl)c(C)cc5[nH]4)CC3)c2c1	0.13 µM (≈ 0.0588 µg/mL)			
COc1cnc2ccc(=O)n(CCN3CCC(c4c[nH]c5ccc(C#N)cc45)CC3)c2c1	100 µM (≈ 42.8 µg/mL)	3.3	2 µM	IC50 [4]: > 50 µM; IC50 (DNA gyrase subunit B): > 100 µM; IC50 (THP-1): > 50 µM
O=c1ccc2ncc(F)cc2n1CCN1CCN(c2nc3cc(C(F)(F)F)ccc3[nH]2)CC1	15 µM (≈ 6.91 µg/mL)	3.7		
N#Cc1ccc2[nH]c(C3CCN(CCn4c(=O)ccc5ncc(Oc6cccnc6)cc54)CC3)nc2c1	3.13 µM (≈ 1.54 µg/mL)	2.9		
O=c1ccc2ncc(F)cc2n1CCN1CCC(c2nc3cc(C(F)(F)F)ccc3[nH]2)CC1	0.78 µM (≈ 0.358 µg/mL)			
COc1cnc2ccc(=O)n(CCN3CCN(c4nc5ccccc5[nH]4)CC3)c2c1	100 µM (≈ 40.4 µg/mL)	2.4	7 µM	
COc1cnc2ccc(=O)n(CCN3CCC(c4nc5cc(C#N)ccc5[nH]4)CC3)c2c1	3.15 µM (≈ 1.35 µg/mL)	2.4		
COc1cnc2ccc(=O)n(CCN3CCC(c4nc5cc(C#N)c(C)cc5[nH]4)CC3)c2c1	0.19 µM (≈ 0.0841 µg/mL)	2.8		IC50 [4]: 4.3 µM; solubility [5]: 2.1 µM (≈ 0.929 µg/mL); Papp A→B [6]: 0.4 ×10⁻⁶ cm/s; Papp B→A [7]: 28.1 ×10⁻⁶ cm/s; clearance [8]: 35.5 mL/min/kg; Vd [9]: 1.01 L/kg; half-life [10]: 36 min; AUC(0-inf) [11]: 470 ng·h/mL; AUC(0-inf) [12]: 20 ng·h/mL; bioavailability [13]: 1.1%; IC50 (Cytochrome P450 1A2): > 30 µM; IC50 (Cytochrome P450 2C9): > 30 µM; IC50 (Cytochrome P450 2C19): > 30 µM; IC50 (Cytochrome P450 2D6): 28 µM; IC50 (Cytochrome P450 3A4): 9.4 µM
COc1cnc2ccc(=O)n(CCN3CCC(c4c[nH]c5cc(C(F)(F)F)ccc45)CC3)c2c1	50 µM (≈ 23.5 µg/mL)	4		IC50 [4]: > 50 µM; IC50 (DNA gyrase subunit B): > 100 µM; IC50 (THP-1): > 50 µM
COc1cnc2ccc(=O)n(CCN3CCC(c4nc5cc(Cl)ccc5[nH]4)CC3)c2c1	0.25 µM (≈ 0.109 µg/mL)	3.6		
NS(=O)(=O)c1ccc(Oc2cnc3ccc(=O)n(CCN4CCC(c5nc6cc(C(F)(F)F)ccc6[nH]5)CC4)c3c2)cc1	0.19 µM (≈ 0.116 µg/mL)	2.4	> 33 µM	IC50 [4]: 1.9 µM
